From patent publication US8785459B2, “Quinazoline compounds as kinase inhibitors” (Development Center for Biotechnology, priority 2011, dated 2014)

Assays:
B-Raf = B-Raf (Homo sapiens (Human), UniProt P15056); test: Raf kinase assay (B-Raf), [33P] incorporation into MEK1(K97R); assay type: biochemical; conditions: for inhibition at 1 µM / B-Raf inhibition at 1.0 μM: 1.0 μM compound; for inhibition at 1 µM: read-out: B-Raf inhibition at 1.0 μM
How it was run: (§1)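 [33P] transfer to kinase-dead MEK1(K97R) substrate (500 ng) measured after 30 min at 30 °C in Tris pH 7.5 buffer containing 8 μM ATP. Enzyme inputs were 2 ng for C-Raf and 5 ng for B-Raf and B-Raf V600E. Duplicate 3-fold serial dilutions gave the half-maximal inhibitory concentration.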

B-Raf (V600E) = B-Raf (V600E) (Homo sapiens (Human), UniProt P15056, V600E); test: Raf kinase assay (B-Raf (V600E)), [33P] incorporation into MEK1(K97R); assay type: biochemical
How it was run: as §1

C-Raf = C-Raf (Homo sapiens (Human), UniProt P04049); test: Raf kinase assay (C-Raf), [33P] incorporation into MEK1(K97R); assay type: biochemical
How it was run: as §1

A549 = test: Anti-proliferative activity, CellTiter-96 assay, A549; assay type: cell-based; conditions: Homo sapiens, A549 cells, 72 hours incubation
Procedure: (§2) Antiproliferative Activity
(§3) The anti-proliferative activities of the compounds with formula (I) and formula (II) with respect to four human cancer cell lines (A549, A375, MDA-MB-231, and COLO205) were measured using the CellTiter™-96 assay kit (Promega) following the manufacturer's instructions. In brief, the cells were maintained in DMEM containing 10% FCS and incubated at 37° C. in 5% CO2 atmosphere. Cells were plated at a density of 2000 cells/well of a 96-well plate for 24 h, then treated with different concentrations of the compounds, and incubated for another 72 hours. At the end of the incubation, CellTiter™-96 Aqueous One Solution Reagent (Promega) was added and incubated for another 4.0 hours. Cell viability was determined by measuring absorbance at 490 nm using EMax® microplate reader (Molecular Devices). Data were processed and analyzed using GraphPad Prism version 4.

A375 = test: Anti-proliferative activity, CellTiter-96 assay, A375; assay type: cell-based; conditions: Homo sapiens, A-375, A375 cells, 72 hours incubation
Procedure: as §2, §3

MDA-MB-231 = test: Anti-proliferative activity, CellTiter-96 assay, MDA-MB-231; assay type: cell-based; conditions: Homo sapiens, MDA-MB-231 cells, 72 hours incubation
Procedure: as §2, §3

COLO205 = test: Anti-proliferative activity, CellTiter-96 assay, COLO205; assay type: cell-based; conditions: Homo sapiens, COLO 205, COLO205 cells, 72 hours incubation
Procedure: as §2, §3

Chain of B-Raf (V600E) (P15056 whole entry V600E): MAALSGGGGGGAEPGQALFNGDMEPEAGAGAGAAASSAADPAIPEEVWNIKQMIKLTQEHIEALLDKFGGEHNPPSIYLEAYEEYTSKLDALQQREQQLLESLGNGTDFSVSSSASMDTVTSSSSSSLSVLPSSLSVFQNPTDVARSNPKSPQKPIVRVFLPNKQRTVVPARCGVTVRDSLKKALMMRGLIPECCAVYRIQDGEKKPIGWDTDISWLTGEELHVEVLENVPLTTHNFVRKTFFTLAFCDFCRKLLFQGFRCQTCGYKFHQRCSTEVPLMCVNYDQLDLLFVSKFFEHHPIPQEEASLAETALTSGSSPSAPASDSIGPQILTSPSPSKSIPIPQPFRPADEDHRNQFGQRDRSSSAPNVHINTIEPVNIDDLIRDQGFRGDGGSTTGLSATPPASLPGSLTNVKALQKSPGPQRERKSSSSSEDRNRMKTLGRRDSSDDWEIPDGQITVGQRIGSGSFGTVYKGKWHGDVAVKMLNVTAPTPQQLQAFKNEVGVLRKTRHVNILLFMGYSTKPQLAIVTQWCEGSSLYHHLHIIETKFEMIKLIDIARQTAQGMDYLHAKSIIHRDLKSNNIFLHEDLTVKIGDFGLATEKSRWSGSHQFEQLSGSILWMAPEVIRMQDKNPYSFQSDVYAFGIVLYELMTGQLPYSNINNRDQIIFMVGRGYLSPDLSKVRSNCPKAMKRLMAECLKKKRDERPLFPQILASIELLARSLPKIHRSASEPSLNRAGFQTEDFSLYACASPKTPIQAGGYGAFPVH
Chain of B-Raf (P15056 whole entry): as the sequence (P15056 whole entry V600E) above, with E600V counted along it
Chain of C-Raf (P04049 whole entry): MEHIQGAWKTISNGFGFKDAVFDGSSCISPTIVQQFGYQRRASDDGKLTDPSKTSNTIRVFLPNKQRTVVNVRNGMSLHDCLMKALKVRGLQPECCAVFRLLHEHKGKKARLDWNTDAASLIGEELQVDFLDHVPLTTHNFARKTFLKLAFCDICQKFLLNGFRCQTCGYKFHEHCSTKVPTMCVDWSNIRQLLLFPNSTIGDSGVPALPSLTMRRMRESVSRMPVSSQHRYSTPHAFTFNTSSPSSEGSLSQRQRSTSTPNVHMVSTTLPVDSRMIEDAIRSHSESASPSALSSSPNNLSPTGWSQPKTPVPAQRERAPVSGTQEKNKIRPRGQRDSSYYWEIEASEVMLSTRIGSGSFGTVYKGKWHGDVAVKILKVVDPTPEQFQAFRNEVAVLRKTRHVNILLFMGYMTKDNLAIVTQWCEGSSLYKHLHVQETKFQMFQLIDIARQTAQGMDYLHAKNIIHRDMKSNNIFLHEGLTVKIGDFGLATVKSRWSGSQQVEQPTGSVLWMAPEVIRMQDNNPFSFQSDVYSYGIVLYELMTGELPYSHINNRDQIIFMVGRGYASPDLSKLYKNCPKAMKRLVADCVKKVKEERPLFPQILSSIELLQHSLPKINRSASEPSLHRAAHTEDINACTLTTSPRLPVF

Compound | IC50 (B-Raf) [nM] | IC50 (B-Raf (V600E)) [nM] | IC50 (C-Raf) [nM] | IC50 (A549) [nM] | IC50 (A375) [nM] | IC50 (MDA-MB-231) [nM] | IC50 (COLO205) [nM] | inhibition at 1 µM (B-Raf) [%] | B-Raf inhibition at 1.0 μM (B-Raf) [%]
COc1cc(-c2ccc3ncnc(Nc4ccccc4)c3c2)ccc1O [Compound 1, 2-methoxy-4-(4-(phenylamino)quinazolin-6-yl)phenol] | 900 | 760 | 2150 | 1300 ± 300 | 2300 ± 100 | 1800 ± 200 | 8500 ± 2300 | – | –
COc1cc(-c2ccc3ncnc(Nc4ccc(F)c(Cl)c4)c3c2)ccc1O [Compound 14, 4-(4-(3-chloro-4-fluorophenylamino)quinazolin-6-yl)-2-methoxyphenol] | 1010 | 1090 | 2160 | > 50000 | > 50000 | > 50000 | 31600 ± 2500 | 52.7 | –
COc1cc(-c2ccc3ncnc(Nc4ccc(F)cc4)c3c2)ccc1O [Compound 15, 4-(4-(4-fluorophenylamino)quinazolin-6-yl)-2-methoxyphenol] | 1150 | 1020 | 1450 | 2500 ± 600 | 2700 ± 200 | 4100 ± 300 | 11800 ± 4600 | 44.4 | –
COc1cc(-c2cc3c(Nc4cccc(O)c4)ncnc3cc2OC)ccc1O [Compound 31, 4-(4-(3-hydroxyphenylamino)-7-methoxyquinazolin-6-yl)-2-methoxyphenol] | 87 | 94 | 781 | > 50000 | > 50000 | > 50000 | > 50000 | 93.8 | –
COc1cc(-c2cc3c(Nc4cc(O)ccc4Cl)ncnc3cc2OC)ccc1O [Compound 43, 4-(4-(2-chloro-5-hydroxyphenylamino)-7-methoxyquinazolin-6-yl)-2-methoxyphenol] | 40.4 | 47.3 | 245 | 2200 ± 400 | 8700 ± 2700 | > 50000 | 24700 ± 2400 | 94.3 | –
COc1cc2ncnc(Nc3cccc(O)c3)c2cc1-c1ccc(O)cc1 [Compound 49, 3-(6-(4-hydroxyphenyl)-7-methoxyquinazolin-4-ylamino)phenol] | 55.3 | 71.6 | 790 | > 50000 | > 50000 | > 50000 | > 50000 | 90.3 | –
COc1cc(-c2ccc3ncnc(Nc4cccc(OC(F)F)c4)c3c2)ccc1O [Compound 118, 4-(4-(3-(difluoromethoxy)phenylamino)quinazolin-6-yl)-2-methoxyphenol] | 548 | 525 | 988 | – | – | – | – | 68.2 | –
COc1cc(-c2ccc3nccc(Nc4cc(NS(C)(=O)=O)ccc4F)c3c2)ccc1O [Compound 128, N-(4-fluoro-3-(6-(4-hydroxy-3-methoxyphenyl)quinolin-4-ylamino)phenyl)methanesulfonamide] | 4130 | 4280 | 12800 | – | – | – | – | 18.5 | –
COc1cc(-c2ccc3ncnc(Nc4cc(NS(C)(=O)=O)ccc4F)c3c2)ccc1O [Compound 129, N-(4-fluoro-3-(6-(4-hydroxy-3-methoxyphenyl)quinazolin-4-ylamino)phenyl)methanesulfonamide] | 240 | 270 | 1060 | – | – | – | – | 77.5 | –
COc1cc(-c2ccc3ncnc(Nc4c(F)cccc4F)c3c2)ccc1O [Compound 134, 4-(4-(2,6-difluorophenylamino)quinazolin-6-yl)-2-methoxyphenol] | 760 | 706 | 4420 | – | – | – | – | 57.7 | –
COc1ccc(-c2ccc3ncnc(Oc4cccc(O)c4)c3c2)cc1 [Compound 152, 3-(6-(4-methoxyphenyl)quinazolin-4-yloxy)phenol] | 131 | 198 | 2330 | > 50000 | > 50000 | > 50000 | – | 86.4 | –
Oc1c(F)ccc(Nc2ncnc3ccc(-c4ccc(Cl)cc4)cc23)c1F [Compound 164, 3-(6-(4-chlorophenyl)quinazolin-4-ylamino)-2,6-difluorophenol] | 151 | 216 | 3510 | – | – | – | – | 83 | –

Now from value to compound:

IC50 (B-Raf) [nM] | IC50 (B-Raf (V600E)) [nM] | IC50 (C-Raf) [nM] | IC50 (A549) [nM] | IC50 (A375) [nM] | IC50 (MDA-MB-231) [nM] | IC50 (COLO205) [nM] | inhibition at 1 µM (B-Raf) [%] | B-Raf inhibition at 1.0 μM (B-Raf) [%] | Compound
267 | 278 | 735 | – | – | – | – | 76.6 | – | COc1ccc(-c2ccc3nccc(Nc4cccc5[nH]ncc45)c3c2)cc1Cl [Compound 115, 6-(3-chloro-4-methoxyphenyl)-N-(1H-indazol-4-yl)quinolin-4-amine]
543 | 633 | 1440 | – | – | – | – | 67.1 | – | COc1cc(-c2ccc3ncnc(Nc4ccccc4F)c3c2)ccc1O [Compound 119, 4-(4-(2-fluorophenylamino)quinazolin-6-yl)-2-methoxyphenol]
227 | 284 | 753 | – | – | – | – | 76.2 | – | Nc1ccc(-c2ccc3nccc(Nc4cccc5[nH]ncc45)c3c2)cc1 [Compound 121, 6-(4-aminophenyl)-N-(1H-indazol-4-yl)quinolin-4-amine]
259 | 264 | 439 | – | – | – | – | 77.5 | – | CCCS(=O)(=O)Nc1cccc(-c2ccc3nccc(Nc4cccc5[nH]ncc45)c3c2)c1 [Compound 122, N-(3-(4-(1H-indazol-4-ylamino)quinolin-6-yl)phenyl)propane-1-sulfonamide]
231 | 263 | 688 | – | – | – | – | 80.3 | – | COc1cccc(-c2ccc3nccc(Nc4cccc5[nH]ncc45)c3c2)c1 [Compound 123, N-(1H-indazol-4-yl)-6-(3-methoxyphenyl)quinolin-4-amine]
285 | 423 | 1030 | – | – | – | – | 71.2 | – | Fc1ccccc1-c1ccc2nccc(Nc3cccc4[nH]ncc34)c2c1 [Compound 125, 6-(2-fluorophenyl)-N-(1H-indazol-4-yl)quinolin-4-amine]
888 | 1090 | 8390 | – | – | – | – | 53.5 | – | COc1cc(-c2ccc3ncnc(Nc4cccc5[nH]c(=O)[nH]c45)c3c2)ccc1O [Compound 127, 4-(6-(4-hydroxy-3-methoxyphenyl)quinazolin-4-ylamino)-1H-benzo[d]imidazol-2(3H)-one]
451 | 547 | 4210 | – | – | – | – | 80.1 | – | Oc1ccc(-c2ccc3ncnc(Nc4cccc5[nH]ncc45)c3c2)cc1 [Compound 131, 4-(4-(1H-indazol-4-ylamino)quinazolin-6-yl)phenol]
350 | 268 | 1130 | – | – | – | – | – | 84.9 | COc1cc(-c2ccc3ncnc(Nc4c(F)ccc5[nH]ncc45)c3c2)ccc1O [Compound 136, 4-(4-(5-fluoro-1H-indazol-4-ylamino)quinazolin-6-yl)-2-methoxyphenol]
227 | 357 | 1960 | – | – | – | – | 75.4 | – | Oc1cccc(-c2ccc3ncnc(Nc4cccc5[nH]ncc45)c3c2)c1 [Compound 143, 3-(4-(1H-indazol-4-ylamino)quinazolin-6-yl)phenol]
309 | 472 | 3900 | – | – | – | – | 62.6 | – | COc1cccc(-c2ccc3ncnc(Nc4cccc5[nH]ncc45)c3c2)c1 [Compound 144, N-(1H-indazol-4-yl)-6-(3-methoxyphenyl)quinazolin-4-amine]
614 | 426 | 3700 | – | – | – | – | – | 64.3 | COc1cccc(-c2ccc3nccc(Nc4cccc5[nH]ncc45)c3c2)c1 [Compound 146, N-(1H-indazol-4-yl)-6-(3-methoxyphenyl)quinolin-4-amine]
680 | 848 | 2950 | – | – | – | – | 50.7 | – | COc1ccc(-c2ccc3ncnc(Nc4cccc5[nH]ncc45)c3c2)cc1 [Compound 147, N-(1H-indazol-4-yl)-6-(4-methoxyphenyl)quinazolin-4-amine]
230 | 359 | 584 | – | – | – | – | 68.9 | – | Oc1cccc(-c2ccc3nccc(Nc4cccc5[nH]ncc45)c3c2)c1 [Compound 148, 3-(4-(1H-indazol-4-ylamino)quinolin-6-yl)phenol]
188 | 236 | 723 | 7700 ± 600 | 6400 ± 900 | 7800 ± 300 | – | 84.4 | – | c1cc(Nc2ncnc3ccc(-c4ccc5[nH]ncc5c4)cc23)c2cn[nH]c2c1 [Compound 153, N-(1H-indazol-4-yl)-6-(1H-indazol-5-yl)quinazolin-4-amine]
